How the values were obtained:
[1] = target: T1, Muscarinic acetylcholine receptor M1 (Homo sapiens, UniProt P11229); type: functional
T1 sequence (P11229 whole entry): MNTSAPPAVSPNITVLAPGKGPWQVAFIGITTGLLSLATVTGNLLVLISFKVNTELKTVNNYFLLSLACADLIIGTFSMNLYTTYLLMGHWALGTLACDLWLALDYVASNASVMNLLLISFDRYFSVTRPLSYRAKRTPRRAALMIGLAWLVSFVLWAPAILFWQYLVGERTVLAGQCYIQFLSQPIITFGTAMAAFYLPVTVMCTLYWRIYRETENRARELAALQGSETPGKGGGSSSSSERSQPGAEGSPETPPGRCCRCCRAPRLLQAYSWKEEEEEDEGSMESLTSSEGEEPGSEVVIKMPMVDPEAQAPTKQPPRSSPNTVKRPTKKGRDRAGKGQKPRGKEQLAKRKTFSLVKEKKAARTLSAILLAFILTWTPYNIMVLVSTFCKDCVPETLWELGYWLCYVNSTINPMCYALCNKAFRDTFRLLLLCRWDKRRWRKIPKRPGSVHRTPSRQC

Vasopressin V1a receptor = Vasopressin V1a receptor (Homo sapiens, UniProt P37288)
Sequence of Vasopressin V1a receptor (P37288 whole entry): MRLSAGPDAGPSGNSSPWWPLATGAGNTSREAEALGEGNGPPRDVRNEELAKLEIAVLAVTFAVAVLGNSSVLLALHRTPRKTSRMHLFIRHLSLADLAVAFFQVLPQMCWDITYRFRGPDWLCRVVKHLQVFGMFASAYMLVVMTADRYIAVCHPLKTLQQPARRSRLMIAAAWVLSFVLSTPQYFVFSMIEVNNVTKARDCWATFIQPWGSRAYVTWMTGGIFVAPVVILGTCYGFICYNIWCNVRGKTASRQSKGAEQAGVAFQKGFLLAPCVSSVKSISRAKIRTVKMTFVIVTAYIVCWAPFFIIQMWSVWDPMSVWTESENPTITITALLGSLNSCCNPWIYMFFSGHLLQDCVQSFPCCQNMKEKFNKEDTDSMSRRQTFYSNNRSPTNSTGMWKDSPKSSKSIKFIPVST

Mu-type opioid receptor = Mu-type opioid receptor (Homo sapiens, UniProt P35372); assay: biochemical; type: functional
Sequence of Mu-type opioid receptor (P35372 whole entry): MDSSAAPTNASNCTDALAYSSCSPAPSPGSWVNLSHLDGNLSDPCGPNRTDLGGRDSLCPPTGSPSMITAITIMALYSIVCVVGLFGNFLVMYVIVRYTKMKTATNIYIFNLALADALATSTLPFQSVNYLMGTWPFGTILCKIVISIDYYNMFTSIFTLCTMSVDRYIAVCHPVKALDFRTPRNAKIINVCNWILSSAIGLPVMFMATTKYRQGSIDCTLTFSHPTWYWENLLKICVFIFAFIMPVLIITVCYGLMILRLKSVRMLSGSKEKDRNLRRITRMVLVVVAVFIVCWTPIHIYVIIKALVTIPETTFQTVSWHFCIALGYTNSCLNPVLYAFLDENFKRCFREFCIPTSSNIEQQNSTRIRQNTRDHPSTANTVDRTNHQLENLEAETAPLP

[2] = target: 5-hydroxytryptamine receptor 2A (Homo sapiens, UniProt P28223); type: functional, cell-based
Sequence of 5-hydroxytryptamine receptor 2A (P28223 whole entry): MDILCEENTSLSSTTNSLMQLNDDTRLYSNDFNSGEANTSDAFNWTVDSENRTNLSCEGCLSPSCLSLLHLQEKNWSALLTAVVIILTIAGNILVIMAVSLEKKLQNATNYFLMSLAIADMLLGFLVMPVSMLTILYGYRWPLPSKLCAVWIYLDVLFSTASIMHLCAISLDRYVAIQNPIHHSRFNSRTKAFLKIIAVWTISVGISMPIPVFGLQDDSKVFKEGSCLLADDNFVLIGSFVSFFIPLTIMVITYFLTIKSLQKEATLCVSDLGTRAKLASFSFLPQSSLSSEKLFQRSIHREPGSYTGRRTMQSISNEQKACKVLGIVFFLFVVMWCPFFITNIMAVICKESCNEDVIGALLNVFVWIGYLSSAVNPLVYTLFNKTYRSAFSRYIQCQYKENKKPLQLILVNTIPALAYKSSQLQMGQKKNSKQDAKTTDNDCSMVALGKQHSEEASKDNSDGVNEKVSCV

Cannabinoid receptor 1 = Cannabinoid receptor 1 (Homo sapiens, UniProt P21554)
Sequence of Cannabinoid receptor 1 (P21554 whole entry): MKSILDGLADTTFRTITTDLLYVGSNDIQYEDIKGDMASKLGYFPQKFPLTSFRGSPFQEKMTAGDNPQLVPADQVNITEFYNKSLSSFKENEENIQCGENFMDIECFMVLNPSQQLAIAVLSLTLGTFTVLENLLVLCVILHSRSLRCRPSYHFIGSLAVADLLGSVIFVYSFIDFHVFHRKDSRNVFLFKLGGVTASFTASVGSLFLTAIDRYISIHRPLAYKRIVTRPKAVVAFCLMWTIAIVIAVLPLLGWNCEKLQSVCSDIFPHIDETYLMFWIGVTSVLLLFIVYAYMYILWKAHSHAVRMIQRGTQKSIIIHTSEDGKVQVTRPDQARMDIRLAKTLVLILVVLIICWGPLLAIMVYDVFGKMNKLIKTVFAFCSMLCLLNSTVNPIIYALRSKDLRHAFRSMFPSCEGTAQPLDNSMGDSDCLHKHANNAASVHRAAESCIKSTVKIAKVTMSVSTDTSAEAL

[3] = target: T2, Alpha-2C adrenergic receptor (Homo sapiens, UniProt P18825); type: functional
T2 sequence (P18825 whole entry): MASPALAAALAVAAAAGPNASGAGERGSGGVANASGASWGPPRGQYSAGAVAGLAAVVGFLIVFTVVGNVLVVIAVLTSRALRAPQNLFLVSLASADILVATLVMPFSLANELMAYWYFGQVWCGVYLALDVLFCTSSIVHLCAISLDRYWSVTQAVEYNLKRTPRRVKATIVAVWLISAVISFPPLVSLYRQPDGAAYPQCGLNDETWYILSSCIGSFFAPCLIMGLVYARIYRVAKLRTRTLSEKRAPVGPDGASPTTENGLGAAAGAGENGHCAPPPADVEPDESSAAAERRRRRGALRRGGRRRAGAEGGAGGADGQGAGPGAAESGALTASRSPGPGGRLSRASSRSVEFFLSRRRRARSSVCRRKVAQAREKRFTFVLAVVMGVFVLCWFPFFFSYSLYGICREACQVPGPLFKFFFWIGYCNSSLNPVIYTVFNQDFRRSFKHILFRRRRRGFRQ

Glucocorticoid receptor = target: T3, Glucocorticoid receptor (Homo sapiens, UniProt P04150)
T3 sequence (P04150 whole entry): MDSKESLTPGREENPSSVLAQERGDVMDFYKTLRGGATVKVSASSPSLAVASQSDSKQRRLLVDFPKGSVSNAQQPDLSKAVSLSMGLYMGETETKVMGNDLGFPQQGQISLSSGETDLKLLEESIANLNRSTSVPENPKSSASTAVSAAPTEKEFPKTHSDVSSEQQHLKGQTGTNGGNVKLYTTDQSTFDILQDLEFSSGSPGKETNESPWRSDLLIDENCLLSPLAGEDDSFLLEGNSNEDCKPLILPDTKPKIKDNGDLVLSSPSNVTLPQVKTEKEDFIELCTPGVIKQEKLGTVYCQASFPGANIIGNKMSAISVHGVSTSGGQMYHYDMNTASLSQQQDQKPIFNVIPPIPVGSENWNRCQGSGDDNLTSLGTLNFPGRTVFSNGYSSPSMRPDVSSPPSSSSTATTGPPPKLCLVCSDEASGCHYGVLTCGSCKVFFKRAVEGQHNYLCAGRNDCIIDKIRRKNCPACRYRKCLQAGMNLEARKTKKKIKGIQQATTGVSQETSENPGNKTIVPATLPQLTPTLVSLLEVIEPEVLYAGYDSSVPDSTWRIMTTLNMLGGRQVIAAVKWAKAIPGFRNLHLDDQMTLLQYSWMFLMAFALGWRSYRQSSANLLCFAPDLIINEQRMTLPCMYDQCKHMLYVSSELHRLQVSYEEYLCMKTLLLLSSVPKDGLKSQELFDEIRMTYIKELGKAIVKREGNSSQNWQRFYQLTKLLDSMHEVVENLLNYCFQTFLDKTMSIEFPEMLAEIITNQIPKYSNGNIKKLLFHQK

[4] = target: T4, 5-hydroxytryptamine receptor 1A (Homo sapiens, UniProt P08908); type: functional, cell-based
T4 sequence (P08908 whole entry): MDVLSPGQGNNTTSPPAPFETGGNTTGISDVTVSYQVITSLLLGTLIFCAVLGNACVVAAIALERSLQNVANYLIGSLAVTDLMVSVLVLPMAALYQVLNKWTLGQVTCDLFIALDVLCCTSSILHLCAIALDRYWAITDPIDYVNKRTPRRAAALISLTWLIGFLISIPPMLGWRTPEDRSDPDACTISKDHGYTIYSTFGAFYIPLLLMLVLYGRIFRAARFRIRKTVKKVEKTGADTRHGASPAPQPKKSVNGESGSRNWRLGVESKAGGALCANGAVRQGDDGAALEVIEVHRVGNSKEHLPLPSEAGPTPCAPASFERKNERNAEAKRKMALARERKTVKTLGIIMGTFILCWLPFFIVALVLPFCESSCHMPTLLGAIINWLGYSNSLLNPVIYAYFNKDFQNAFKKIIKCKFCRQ

[5] = target: Beta-2 adrenergic receptor (Homo sapiens, UniProt P07550); type: functional, cell-based
Sequence of Beta-2 adrenergic receptor (P07550 whole entry): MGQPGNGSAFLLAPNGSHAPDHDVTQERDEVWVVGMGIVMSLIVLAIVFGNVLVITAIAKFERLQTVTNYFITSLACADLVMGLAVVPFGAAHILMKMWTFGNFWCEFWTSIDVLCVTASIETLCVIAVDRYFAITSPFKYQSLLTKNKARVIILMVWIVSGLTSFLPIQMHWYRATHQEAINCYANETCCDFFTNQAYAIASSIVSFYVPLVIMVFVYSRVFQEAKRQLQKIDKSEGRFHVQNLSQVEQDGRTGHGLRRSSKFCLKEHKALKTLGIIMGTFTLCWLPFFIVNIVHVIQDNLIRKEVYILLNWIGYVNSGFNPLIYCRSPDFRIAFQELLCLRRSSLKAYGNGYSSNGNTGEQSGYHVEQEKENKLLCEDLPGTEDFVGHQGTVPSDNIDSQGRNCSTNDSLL
Also: assay procedure not described here.

In the case of O=C(O)c1ccc2nc(-c3cc(Cl)cc(Cl)c3)oc2c1, the AC50 [1] was greater than 30 µM, the AC50 (Vasopressin V1a receptor) was greater than 30 µM and the AC50 (Mu-type opioid receptor) was greater than 30 µM. The AC50 [2] was greater than 30 µM, the AC50 (Cannabinoid receptor 1) was 22 µM and the AC50 [3] was greater than 30 µM. The AC50 (Glucocorticoid receptor) was greater than 30 µM.
NS(=O)(=O)c1ccc(N2CCCCS2(=O)=O)cc1 showed an AC50 [1] greater than 30 µM, an AC50 (Vasopressin V1a receptor) greater than 30 µM and an AC50 [4] greater than 30 µM. It also gave an AC50 (Mu-type opioid receptor) greater than 30 µM, an AC50 [2] greater than 30 µM and an AC50 [5] greater than 30 µM. The AC50 [3] was greater than 30 µM and the AC50 (Glucocorticoid receptor) was greater than 30 µM.
Compound CC(=O)OCC1=C(C(=O)O)N2C(=O)[C@@H](NC(=O)Cc3cccs3)[C@H]2SC1 [CEPHALOTHIN] has an AC50 [1] greater than 30 µM, an AC50 (Vasopressin V1a receptor) greater than 30 µM and an AC50 [4] greater than 30 µM. The AC50 (Mu-type opioid receptor) was greater than 30 µM, the AC50 [2] was greater than 30 µM and the AC50 [5] was greater than 30 µM. The AC50 [3] was greater than 30 µM and the AC50 (Glucocorticoid receptor) was greater than 30 µM.
CC(=O)OCC1=C(C(=O)O)N2C(=O)[C@@H](NC(=O)CSc3ccncc3)[C@H]2SC1 [CEPHAPIRIN] was tested, and the AC50 [1] was greater than 10 µM, the AC50 (Vasopressin V1a receptor) was greater than 10 µM and the AC50 [4] was greater than 10 µM. The AC50 (Mu-type opioid receptor) was greater than 30 µM, the AC50 [2] was greater than 10 µM and the AC50 (Cannabinoid receptor 1) was greater than 10 µM. The AC50 [3] was greater than 10 µM and the AC50 (Glucocorticoid receptor) was greater than 30 µM.
With CC1=C(C(=O)O)N2C(=O)[C@@H](NC(=O)[C@H](N)C3=CCC=CC3)[C@H]2SC1 [CEPHRADINE] the AC50 [1] was greater than 30 µM, the AC50 (Vasopressin V1a receptor) was greater than 30 µM and the AC50 (Mu-type opioid receptor) was greater than 30 µM. The AC50 [2] was greater than 30 µM, the AC50 [5] was greater than 30 µM and the AC50 [3] was greater than 30 µM. It also gave an AC50 (Glucocorticoid receptor) greater than 30 µM.
Work on Nc1nc(Cl)nc2c1ncn2[C@@H]1O[C@H](CO)[C@@H](O)[C@@H]1F [CLOFARABINE] yielded an AC50 [1] greater than 30 µM, an AC50 (Vasopressin V1a receptor) greater than 30 µM and an AC50 [4] greater than 30 µM. For the same compound, the AC50 (Mu-type opioid receptor) was greater than 30 µM, the AC50 [2] was greater than 30 µM and the AC50 (Cannabinoid receptor 1) was greater than 30 µM. The AC50 [3] was greater than 30 µM.
For CN(C)CCOC(=O)C(c1ccccc1)C1(O)CCCC1 (stereo not drawn) [CYCLOPENTOLATE], the AC50 [1] was 0.069 µM, the AC50 (Vasopressin V1a receptor) was greater than 10 µM and the AC50 [4] was greater than 10 µM. It also gave an AC50 (Mu-type opioid receptor) greater than 30 µM, an AC50 [2] greater than 10 µM and an AC50 (Cannabinoid receptor 1) greater than 10 µM. The AC50 [3] was greater than 30 µM and the AC50 (Glucocorticoid receptor) was greater than 10 µM.
In the case of OCCN(CCO)c1nc(N2CCCCC2)c2nc(N(CCO)CCO)nc(N3CCCCC3)c2n1 [DIPYRIDAMOLE], the AC50 [4] was greater than 10 µM, the AC50 (Mu-type opioid receptor) was greater than 30 µM and the AC50 (Cannabinoid receptor 1) was greater than 30 µM. The AC50 [3] was greater than 30 µM.
For CCc1ccc(C(=O)C(C)CN2CCCCC2)cc1 (stereo not drawn) [EPERISONE], the AC50 (Mu-type opioid receptor) was greater than 30 µM, the AC50 (Cannabinoid receptor 1) was greater than 30 µM and the AC50 [3] was 2.09 µM. For the same compound, the AC50 (Glucocorticoid receptor) was greater than 30 µM.
For CCC1(C)CC(=O)NC1=O (stereo not drawn) [ETHOSUXIMIDE], the AC50 [4] was greater than 10 µM, the AC50 (Mu-type opioid receptor) was greater than 30 µM and the AC50 (Cannabinoid receptor 1) was greater than 10 µM. For the same compound, the AC50 [3] was greater than 10 µM and the AC50 (Glucocorticoid receptor) was greater than 10 µM.
Compound CCN1C(=O)NC(c2ccccc2)C1=O (stereo not drawn) [ETHOTOIN] has an AC50 [1] greater than 30 µM, an AC50 (Vasopressin V1a receptor) greater than 30 µM and an AC50 [4] greater than 30 µM. For the same compound, the AC50 (Mu-type opioid receptor) was greater than 30 µM, the AC50 [2] was greater than 30 µM and the AC50 [5] was greater than 30 µM. For the same compound, the AC50 [3] was greater than 30 µM and the AC50 (Glucocorticoid receptor) was greater than 30 µM.
For CC(=O)OCC(=O)[C@@]1(O)CC[C@H]2[C@@H]3CCC4=CC(=O)CC[C@]4(C)[C@@]3(F)[C@@H](O)C[C@@]21C [FLUDROCORTISONE ACETATE], the AC50 [4] was greater than 30 µM, the AC50 (Mu-type opioid receptor) was greater than 30 µM and the AC50 [5] was greater than 30 µM. It also gave an AC50 [3] greater than 30 µM.
